For three compounds, EC50 and Ki results are on record in patent US7589213B2 (priority 2007, dated 2009).

Experiment [1] concerns the target T1, hEP3A (Homo sapiens, UniProt P43115).
T1 sequence (P43115 1-390): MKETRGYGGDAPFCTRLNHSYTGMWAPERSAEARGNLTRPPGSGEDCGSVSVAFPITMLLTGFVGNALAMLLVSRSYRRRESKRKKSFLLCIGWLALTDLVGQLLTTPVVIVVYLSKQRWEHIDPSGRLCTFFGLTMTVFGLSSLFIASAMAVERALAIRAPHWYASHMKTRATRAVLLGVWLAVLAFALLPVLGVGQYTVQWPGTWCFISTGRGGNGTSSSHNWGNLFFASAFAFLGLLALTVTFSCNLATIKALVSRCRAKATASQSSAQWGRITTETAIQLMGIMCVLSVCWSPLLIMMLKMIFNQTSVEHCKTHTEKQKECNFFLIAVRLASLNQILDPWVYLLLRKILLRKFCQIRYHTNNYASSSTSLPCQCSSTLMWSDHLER
Nature of the experiment: Other receptors functional EC50, hEP3A. The experiment is classed as cell-based. From the text: (§1) U.S. patent application Ser. No. 11/553,143, filed on Oct. 26, 2006, incorporated by reference herein, describes the methods used to obtain the in vitro data in the table below.

For experiment [2], the target named is T2, hEP1 (Homo sapiens, UniProt P34995).
T2 sequence (P34995 1-402): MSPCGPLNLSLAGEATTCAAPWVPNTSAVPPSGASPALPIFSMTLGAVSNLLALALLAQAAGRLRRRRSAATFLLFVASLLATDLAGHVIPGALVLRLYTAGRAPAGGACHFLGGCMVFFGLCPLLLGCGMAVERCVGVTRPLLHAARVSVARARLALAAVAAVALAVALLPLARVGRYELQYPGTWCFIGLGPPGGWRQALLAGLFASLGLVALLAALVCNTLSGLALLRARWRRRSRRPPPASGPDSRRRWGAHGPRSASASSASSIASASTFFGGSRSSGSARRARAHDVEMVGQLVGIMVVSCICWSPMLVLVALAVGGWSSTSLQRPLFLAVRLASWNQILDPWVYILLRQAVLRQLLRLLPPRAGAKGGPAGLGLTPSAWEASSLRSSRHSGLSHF
As to the kind of experiment: Other receptors functional EC50, hEP1. The format is cell-based.
Excerpt: as §1

Experiment [3] concerns the target T3, EP2 (Homo sapiens, UniProt P43116). Nature of the experiment: EP2 cAMP assay. The format is cell-based.
Excerpt: as §1

The target in experiment [4] is EP4 (Homo sapiens, UniProt P35408). Nature of the experiment: EP4 binding (KI).
Excerpt: as §1

Experiment [5] deals with hIP (Homo sapiens, UniProt P43119). Nature of the experiment: Other receptors functional EC50, hIP. The experiment is classed as cell-based.
Excerpt: as §1

The target of experiment [6] is T3, EP2. Nature of the experiment: EP2 flipr assay. The format is cell-based.
Excerpt: as §1

Experiment [7] deals with T4, hDP (Homo sapiens, UniProt Q13258).
T4 sequence (Q13258 1-359): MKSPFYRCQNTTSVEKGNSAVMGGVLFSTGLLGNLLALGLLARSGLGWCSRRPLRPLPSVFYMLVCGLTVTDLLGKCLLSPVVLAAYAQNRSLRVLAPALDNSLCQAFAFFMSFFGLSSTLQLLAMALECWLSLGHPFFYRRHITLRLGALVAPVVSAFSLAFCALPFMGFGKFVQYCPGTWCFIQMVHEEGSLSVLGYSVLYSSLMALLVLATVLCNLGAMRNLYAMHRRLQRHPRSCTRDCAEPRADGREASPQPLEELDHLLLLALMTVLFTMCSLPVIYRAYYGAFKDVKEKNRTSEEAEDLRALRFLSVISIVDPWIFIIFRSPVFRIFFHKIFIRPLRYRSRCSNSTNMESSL
As to the kind of experiment: Other receptors functional EC50, hDP. The experiment is classed as cell-based.
Excerpt: as §1

Experiment [8] has as its target T5, hTP (Homo sapiens, UniProt P21731).
T5 sequence (P21731 1-343): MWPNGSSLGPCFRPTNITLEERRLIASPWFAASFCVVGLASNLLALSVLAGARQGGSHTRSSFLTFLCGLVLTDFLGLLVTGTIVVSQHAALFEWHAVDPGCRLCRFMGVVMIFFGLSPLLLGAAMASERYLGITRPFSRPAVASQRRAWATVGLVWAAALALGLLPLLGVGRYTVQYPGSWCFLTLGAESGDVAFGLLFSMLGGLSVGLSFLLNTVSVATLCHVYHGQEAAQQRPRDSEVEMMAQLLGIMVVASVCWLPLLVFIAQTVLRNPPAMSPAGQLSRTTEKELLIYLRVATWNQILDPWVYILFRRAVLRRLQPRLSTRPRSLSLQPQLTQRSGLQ
Nature of the experiment: Other receptors functional EC50, hTP. The format is cell-based.
Excerpt: as §1

Experiment [9] concerns the target T3, EP2. As to the kind of experiment: EP2 binding (Ki).
Excerpt: as §1

The target of experiment [10] is hFP (Homo sapiens, UniProt P43088). Nature of the experiment: Other receptors functional EC50, hFP. The format is cell-based.
Excerpt: as §1

T3 sequence (P43116 whole entry): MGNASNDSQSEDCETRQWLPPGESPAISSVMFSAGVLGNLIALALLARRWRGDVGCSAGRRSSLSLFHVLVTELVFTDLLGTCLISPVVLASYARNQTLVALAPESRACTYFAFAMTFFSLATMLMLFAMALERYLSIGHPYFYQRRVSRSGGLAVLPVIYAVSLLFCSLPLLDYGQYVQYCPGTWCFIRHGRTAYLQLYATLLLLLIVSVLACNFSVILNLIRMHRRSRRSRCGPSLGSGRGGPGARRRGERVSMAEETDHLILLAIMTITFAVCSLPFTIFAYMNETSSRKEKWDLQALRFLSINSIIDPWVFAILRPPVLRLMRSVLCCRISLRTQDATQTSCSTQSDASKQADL
Chain of hIP (P43119 whole entry): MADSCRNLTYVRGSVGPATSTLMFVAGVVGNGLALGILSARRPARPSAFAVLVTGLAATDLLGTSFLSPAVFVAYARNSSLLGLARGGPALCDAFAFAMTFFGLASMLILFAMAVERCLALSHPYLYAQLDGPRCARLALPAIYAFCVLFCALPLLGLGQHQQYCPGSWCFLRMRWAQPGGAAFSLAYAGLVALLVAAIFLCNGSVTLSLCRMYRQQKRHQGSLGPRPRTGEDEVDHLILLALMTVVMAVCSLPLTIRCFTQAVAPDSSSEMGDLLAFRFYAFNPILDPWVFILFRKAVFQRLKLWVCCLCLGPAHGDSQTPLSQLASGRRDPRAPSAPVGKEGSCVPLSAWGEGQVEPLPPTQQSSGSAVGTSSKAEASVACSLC
Chain of EP4 (P35408 whole entry): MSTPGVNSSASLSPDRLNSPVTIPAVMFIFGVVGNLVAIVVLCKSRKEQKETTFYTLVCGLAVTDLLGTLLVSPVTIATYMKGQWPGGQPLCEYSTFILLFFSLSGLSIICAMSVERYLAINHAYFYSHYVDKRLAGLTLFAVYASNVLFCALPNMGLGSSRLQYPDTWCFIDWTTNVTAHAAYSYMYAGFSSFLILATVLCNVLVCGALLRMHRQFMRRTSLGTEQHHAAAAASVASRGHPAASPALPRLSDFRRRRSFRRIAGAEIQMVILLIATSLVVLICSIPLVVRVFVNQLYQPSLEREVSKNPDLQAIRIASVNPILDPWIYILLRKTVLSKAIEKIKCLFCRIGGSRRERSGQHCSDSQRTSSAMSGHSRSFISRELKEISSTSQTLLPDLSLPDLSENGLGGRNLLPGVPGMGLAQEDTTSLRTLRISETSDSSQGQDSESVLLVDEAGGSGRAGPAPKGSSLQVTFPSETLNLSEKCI
Chain of hFP (P43088 whole entry): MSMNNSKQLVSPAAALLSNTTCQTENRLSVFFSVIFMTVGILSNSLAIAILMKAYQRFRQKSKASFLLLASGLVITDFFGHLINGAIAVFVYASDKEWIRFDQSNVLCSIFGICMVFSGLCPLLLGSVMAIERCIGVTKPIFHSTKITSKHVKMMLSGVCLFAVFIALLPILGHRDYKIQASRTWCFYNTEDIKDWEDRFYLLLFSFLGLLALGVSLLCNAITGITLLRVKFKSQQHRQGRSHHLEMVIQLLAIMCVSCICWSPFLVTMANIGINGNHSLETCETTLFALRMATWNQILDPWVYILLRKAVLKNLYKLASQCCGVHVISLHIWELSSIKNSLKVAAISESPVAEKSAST

In the case of `CCCCCC(O)c1ccc(N2C(=O)CC[C@@H]2CCSc2nc(C(=O)O)cs2)cc1` (stereo partly drawn) [compound 14, (R)-2-(2-(1-(4-(1-hydroxyhexyl)phenyl)-5-oxopyrrolidin-2-yl)ethylthio)thiazole-4-carboxylic acid], the EC50 in experiment [1] was 44 nM; in experiment [2], > 10000 nM; in [3], 0.00019 µM; in experiment [5], > 10000 nM; in experiment [6], 0.036 µM; in [7], > 10000 nM. Moreover, the concentration for a half-maximal effect (EC50) in experiment [8] is > 10000 nM. Besides, the results for the Ki in [4] and in [9] were > 10 µM and 0.011 µM, respectively.
Take `CCCCCC(O)c1ccc(N2C(=O)CC[C@@H]2CCSc2ncc(C(=O)O)s2)cc1` (stereo partly drawn) [compound 22, (R)-2-(2-(1-(4-(1-hydroxyhexyl)phenyl)-5-oxopyrrolidin-2-yl)ethylthio)thiazole-5-carboxylic acid]: the concentration giving a half-maximal response (EC50) in experiment [1] is 11400 nM; in experiment [3] it was 0.004 µM; in experiment [5], > 10000 nM; in [6], 1.8 µM; in experiment [7] it was > 10000 nM. The values for the inhibitory constant (Ki) in [4] and in experiment [9] were > 10 µM and 0.389 µM, respectively.
As to `O=C(O)c1ccc(COC[C@H]2CCC(=O)N2c2ccc(-c3nccs3)cc2)s1` [compound 58, (R)-5-(((5-oxo-1-(4-(thiazol-2-yl)phenyl)pyrrolidin-2-yl)methoxy)methyl)thiophene-2-carboxylic acid], the EC50 in [3] was 0.038 µM; in [10] it was > 10000 nM; in experiment [6], 5.89 µM; in experiment [7] it was 4640 nM; in [8] it was > 10000 nM. Also, in [9], the affinity corresponds to a Ki of 0.215 µM.
